{"source": "patent US12590066B2", "about": "“Fused-heterocyclyl-carbonohydrazonoyl dicyanide compounds and use thereof” (KOREA INSTITUTE OF SCIENCE AND TECHNOLOGY, priority 2020, dated 2026)", "key": {"[1]": {"target": "T1, tau protein (Homo sapiens, UniProt P10636)", "T1 construct": "BiFC fluorescent-protein fragments (type and halves not specified); expressed in transfected cells", "T1 sequence (P10636 1-441 isoform P10636-8)": "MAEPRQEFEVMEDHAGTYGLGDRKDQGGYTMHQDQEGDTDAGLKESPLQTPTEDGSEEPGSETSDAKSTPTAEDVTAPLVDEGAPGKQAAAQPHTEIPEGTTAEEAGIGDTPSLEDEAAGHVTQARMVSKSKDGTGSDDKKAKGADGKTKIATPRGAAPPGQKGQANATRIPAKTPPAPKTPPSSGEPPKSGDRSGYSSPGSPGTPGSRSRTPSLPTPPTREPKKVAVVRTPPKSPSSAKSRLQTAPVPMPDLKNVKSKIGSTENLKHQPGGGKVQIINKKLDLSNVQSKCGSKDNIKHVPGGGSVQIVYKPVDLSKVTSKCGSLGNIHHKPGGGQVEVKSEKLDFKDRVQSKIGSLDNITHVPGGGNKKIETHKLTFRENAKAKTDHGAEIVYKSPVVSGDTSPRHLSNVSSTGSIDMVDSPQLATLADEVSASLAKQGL", "assay": "Tau-BiFC cell model, inhibition of Forskolin-induced tau protein aggregation", "assay_type": "cell-based", "conditions": "Forskolin 30 μM, 48 hours", "procedure": "In order to select novel tau protein aggregation-inhibiting substances, tau-BiFC cell model, in which formation of tau oligomers in living cells is easily observed, was used. Tau-BiFC cells were aliquoted into a 384-well plate. On the next day, the cells were treated with each of the compounds prepared according to Examples 1 to 57 at concentrations of 1 μM, 3 μM, and 10 μM, together with Forskolin (at a treatment concentration of 30 μM), which is a compound inducing tau protein aggregation by activating tau phosphorylase PKA. After 48 hours, nuclei in the cells were stained using Hoechst (at a treatment concentration of 2 μg/mL), and BiFC fluorescence intensity was automatically measured using Operetta (PerkinElmer) to count stained nuclei in each well out of the entire well plate. The group treated only with Forskolin, which induces tau protein aggregation, was set to a reference point of a 100% tau protein-aggregated state, and the effects of the compounds were confirmed using the equation “BiFC fluorescence intensity due to compound synthesized according to embodiment of present invention/(fluorescence intensity of control group treated only with Forskolin inducing tau protein aggregation−fluorescence intensity of untreated control group)×100”. Furthermore, the degree of cytotoxicity induced by the newly synthesized compound was also measured based on the 100% cell viability of the group treated only with Forskolin as a reference, and the cytotoxicity value of each compound was calculated using the equation “(number of stained nuclei in group treated with compound/number of stained nuclei in group treated with Forskolin)×100”. Based on the treatment results, substances inhibiting intracellular tau protein aggregation were selected from a series of candidate groups showing a tau protein aggregation inhibition rate of 70% or more and cell viability of 100% at a compound treatment concentration of 10 μM or more.\nIn order to evaluate dose-dependent tau protein aggregation inhibition effects of the compounds selected according to Experimental Example 1 on tau protein aggregation, tau-BiFC cells were treated with the selected compounds at concentrations of 0.03 μM, […], 0.3 μM, 1 μM, 3 μM, 10 μM, and 30 μM, respectively, together with Forskolin (at a treatment concentration of 30 μM), which is a tau protein aggregation-inducing substance. After 48 hours, tau protein aggregation reaction and degrees of cytotoxicity were analyzed by observing images of the cells. IC50 and toxicity of the compounds were analyzed by way of nonlinear regression analysis of prism software (Graph Pad)."}, "[2]": {"tested_on": "Tau-BiFC cells", "assay": "Cell viability (stained nuclei count) in Tau-BiFC cells", "assay_type": "cell-based", "conditions": "10 μM compound, 48 hours; Forskolin-only group = 100% cell viability", "procedure": "In order to select novel tau protein aggregation-inhibiting substances, tau-BiFC cell model, in which formation of tau oligomers in living cells is easily observed, was used. Tau-BiFC cells were aliquoted into a 384-well plate. On the next day, the cells were treated with each of the compounds prepared according to Examples 1 to 57 at concentrations of 1 μM, 3 μM, and 10 μM, together with Forskolin (at a treatment concentration of 30 μM), which is a compound inducing tau protein aggregation by activating tau phosphorylase PKA. After 48 hours, nuclei in the cells were stained using Hoechst (at a treatment concentration of 2 μg/mL), and BiFC fluorescence intensity was automatically measured using Operetta (PerkinElmer) to count stained nuclei in each well out of the entire well plate. The group treated only with Forskolin, which induces tau protein aggregation, was set to a reference point of a 100% tau protein-aggregated state, and the effects of the compounds were confirmed using the equation “BiFC fluorescence intensity due to compound synthesized according to embodiment of present invention/(fluorescence intensity of control group treated only with Forskolin inducing tau protein aggregation−fluorescence intensity of untreated control group)×100”. Furthermore, the degree of cytotoxicity induced by the newly synthesized compound was also measured based on the 100% cell viability of the group treated only with Forskolin as a reference, and the cytotoxicity value of each compound was calculated using the equation “(number of stained nuclei in group treated with compound/number of stained nuclei in group treated with Forskolin)×100”. Based on the treatment results, substances inhibiting intracellular tau protein aggregation were selected from a series of candidate groups showing a tau protein aggregation inhibition rate of 70% or more and cell viability of 100% at a compound treatment concentration of 10 μM or more. […]"}, "[3]": {"target": "T2, CYP2C19 (Homo sapiens, UniProt P33261)", "T2 construct": "human liver microsomes (0.25 mg/mL); from tissue; host or cells: human liver microsomes", "T2 sequence (P33261 whole entry)": "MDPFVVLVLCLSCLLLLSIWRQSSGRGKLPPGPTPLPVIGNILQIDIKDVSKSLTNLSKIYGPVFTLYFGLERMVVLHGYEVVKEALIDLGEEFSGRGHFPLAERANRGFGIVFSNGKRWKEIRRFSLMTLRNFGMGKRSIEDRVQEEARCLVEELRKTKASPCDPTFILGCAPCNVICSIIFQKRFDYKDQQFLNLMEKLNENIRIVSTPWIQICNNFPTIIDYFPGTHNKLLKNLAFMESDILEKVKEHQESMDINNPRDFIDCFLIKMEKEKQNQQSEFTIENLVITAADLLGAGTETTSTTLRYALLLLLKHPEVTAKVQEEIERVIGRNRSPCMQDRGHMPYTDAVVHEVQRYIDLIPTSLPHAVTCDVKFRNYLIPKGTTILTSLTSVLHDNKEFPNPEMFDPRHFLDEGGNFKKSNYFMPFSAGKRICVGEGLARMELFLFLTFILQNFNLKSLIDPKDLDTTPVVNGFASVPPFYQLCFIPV", "assay": "Inhibitory effect on CYP coenzyme activity, human liver microsomes", "assay_type": "in vitro ADME", "conditions": "10 μM compound, human liver microsomes 0.25 mg/mL, substrate S-mephenytoin, 15 minutes", "procedure": "(§1) The inhibitory effects of the compounds prepared according to Examples 1 to 57 on CYP coenzyme activity were identified. Specifically, human liver microsomes (0.25 mg/mL), a 0.1 M phosphate buffer solution (pH 7.4), a substrate drug cocktail of five types of drug metabolism enzymes (50 μM phenacetin, 10 μM diclofenac, 100 μM S-mephenytoin, 5 μM dextromethorphan, and 2.5 μM midazolam), and the compound at a concentration of 0 μM or 10 μM were mixed and pre-cultured at 37° C. for 5 minutes, and then further cultured at 37° C. for 15 minutes together with an NADPH generation system solution added thereto. Thereafter, the reaction was terminated by adding an acetonitrile solution containing an internal standard material (terfenadine) and centrifuged for 5 minutes (14,000 rpm, 4° C.), and then a supernatant was injected into an LC-MS/MS system for simultaneous analysis of metabolites of the substrate drugs to thereby evaluate the inhibitory effects on drug metabolism.\n(§2) Metabolites of each CYP coenzyme indicator drug generated through the reaction were analyzed using the Shimadzu Nexera XR system and TSQ Vantage (Thermo). In an HPLC column, Kinetex C18 (2.1 mm×100 mm, 2.6 μm, particle size; Phenomenex, USA) was used, and mobile phases were (A) distilled water containing 0.1% formic acid and (B) acetonitrile containing 0.1% formic acid, and a gradient program shown in Table 3 was applied thereto.\n(§3) The generated metabolites were quantified using a multiple reaction monitoring (MRM) quantification mode, and Xcalibur (version 1.6.1) was used for data analysis. In order to express inhibitory effects of the novel compound prepared according to the examples of the present invention on CYP coenzyme activity, CYP coenzyme activities (%) with respect to the control group not treated with the compound are shown in Table 4 below."}, "[4]": {"target": "T3, CYP3A4 (Homo sapiens, UniProt P08684)", "T3 construct": "human liver microsomes (0.25 mg/mL); from tissue; host or cells: human liver microsomes", "T3 sequence (P08684 whole entry)": "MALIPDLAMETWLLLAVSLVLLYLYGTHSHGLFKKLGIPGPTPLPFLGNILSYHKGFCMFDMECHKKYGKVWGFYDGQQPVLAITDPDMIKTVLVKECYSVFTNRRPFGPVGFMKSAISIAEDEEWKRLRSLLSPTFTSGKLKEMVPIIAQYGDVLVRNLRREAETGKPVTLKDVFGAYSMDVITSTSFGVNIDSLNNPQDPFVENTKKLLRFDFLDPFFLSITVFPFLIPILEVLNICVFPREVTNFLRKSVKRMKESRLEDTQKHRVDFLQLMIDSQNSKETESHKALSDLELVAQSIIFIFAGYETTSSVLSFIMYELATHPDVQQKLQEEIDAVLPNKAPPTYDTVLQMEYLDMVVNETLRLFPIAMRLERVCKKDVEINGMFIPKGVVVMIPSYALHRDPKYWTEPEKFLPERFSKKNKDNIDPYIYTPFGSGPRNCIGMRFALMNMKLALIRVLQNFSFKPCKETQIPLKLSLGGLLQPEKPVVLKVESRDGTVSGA", "assay": "Inhibitory effect on CYP coenzyme activity, human liver microsomes", "assay_type": "in vitro ADME", "conditions": "10 μM compound, human liver microsomes 0.25 mg/mL, substrate midazolam, 15 minutes", "procedure": "as §1, §2, §3"}, "[5]": {"target": "T4, CYP2C9 (Homo sapiens, UniProt P11712)", "T4 construct": "human liver microsomes (0.25 mg/mL); from tissue; host or cells: human liver microsomes", "T4 sequence (P11712 whole entry)": "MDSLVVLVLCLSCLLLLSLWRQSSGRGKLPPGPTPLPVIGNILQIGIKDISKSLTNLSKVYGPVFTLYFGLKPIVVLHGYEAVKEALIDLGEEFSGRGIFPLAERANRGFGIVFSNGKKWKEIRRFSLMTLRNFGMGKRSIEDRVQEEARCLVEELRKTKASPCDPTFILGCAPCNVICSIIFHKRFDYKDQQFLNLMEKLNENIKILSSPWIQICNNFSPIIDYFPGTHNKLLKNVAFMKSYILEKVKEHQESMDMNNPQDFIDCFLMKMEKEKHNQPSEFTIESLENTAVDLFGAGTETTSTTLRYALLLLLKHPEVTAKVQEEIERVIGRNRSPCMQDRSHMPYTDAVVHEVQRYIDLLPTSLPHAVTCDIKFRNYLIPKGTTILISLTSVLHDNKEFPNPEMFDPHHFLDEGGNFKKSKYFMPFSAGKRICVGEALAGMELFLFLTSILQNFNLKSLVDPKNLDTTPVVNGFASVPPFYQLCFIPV", "assay": "Inhibitory effect on CYP coenzyme activity, human liver microsomes", "assay_type": "in vitro ADME", "conditions": "10 μM compound, human liver microsomes 0.25 mg/mL, substrate diclofenac, 15 minutes", "procedure": "as §1, §2, §3"}, "[6]": {"target": "T5, CYP1A2 (Homo sapiens, UniProt P05177)", "T5 construct": "human liver microsomes (0.25 mg/mL); from tissue; host or cells: human liver microsomes", "T5 sequence (P05177 1-516)": "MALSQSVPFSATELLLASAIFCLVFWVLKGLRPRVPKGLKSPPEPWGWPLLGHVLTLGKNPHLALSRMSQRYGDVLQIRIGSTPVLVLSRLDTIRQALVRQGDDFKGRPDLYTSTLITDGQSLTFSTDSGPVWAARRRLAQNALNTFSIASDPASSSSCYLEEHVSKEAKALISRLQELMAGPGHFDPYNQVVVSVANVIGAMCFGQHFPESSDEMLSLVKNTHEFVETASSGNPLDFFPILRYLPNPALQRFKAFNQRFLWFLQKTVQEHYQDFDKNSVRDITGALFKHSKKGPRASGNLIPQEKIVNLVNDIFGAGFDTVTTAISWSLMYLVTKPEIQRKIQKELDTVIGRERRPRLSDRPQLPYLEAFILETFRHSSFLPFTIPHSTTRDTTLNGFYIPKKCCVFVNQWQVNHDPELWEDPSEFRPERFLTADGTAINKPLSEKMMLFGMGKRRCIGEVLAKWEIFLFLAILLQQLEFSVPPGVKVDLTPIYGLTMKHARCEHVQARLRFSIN", "assay": "Inhibitory effect on CYP coenzyme activity, human liver microsomes", "assay_type": "in vitro ADME", "conditions": "10 μM compound, human liver microsomes 0.25 mg/mL, substrate phenacetin, 15 minutes", "procedure": "as §1, §2, §3"}, "[7]": {"target": "T6, CYP2D6 (Homo sapiens, UniProt P10635)", "T6 construct": "human liver microsomes (0.25 mg/mL); from tissue; host or cells: human liver microsomes", "T6 sequence (P10635 whole entry)": "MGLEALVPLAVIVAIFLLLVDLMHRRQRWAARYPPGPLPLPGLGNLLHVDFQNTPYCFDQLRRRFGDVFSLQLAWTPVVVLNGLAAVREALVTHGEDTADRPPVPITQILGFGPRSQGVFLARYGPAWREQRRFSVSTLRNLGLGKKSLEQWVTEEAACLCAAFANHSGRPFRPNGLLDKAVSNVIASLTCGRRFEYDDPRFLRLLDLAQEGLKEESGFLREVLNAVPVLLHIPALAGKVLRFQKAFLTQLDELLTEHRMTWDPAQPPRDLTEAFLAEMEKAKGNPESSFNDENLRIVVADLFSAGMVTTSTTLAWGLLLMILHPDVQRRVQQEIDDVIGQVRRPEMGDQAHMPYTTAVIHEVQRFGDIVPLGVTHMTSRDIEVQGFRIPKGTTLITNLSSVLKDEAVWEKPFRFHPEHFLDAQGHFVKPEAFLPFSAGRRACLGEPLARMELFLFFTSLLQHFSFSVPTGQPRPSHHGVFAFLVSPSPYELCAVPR", "assay": "Inhibitory effect on CYP coenzyme activity, human liver microsomes", "assay_type": "in vitro ADME", "conditions": "10 μM compound, human liver microsomes 0.25 mg/mL, substrate dextromethorphan, 15 minutes", "procedure": "as §1, §2, §3"}}}
{"smiles": "Cc1cc(=O)n(C)c2ccc(NN=C(C#N)C#N)cc12", "note": "[Compound 27, (1,4-dimethyl-2-oxo-1,2-dihydroquinolin-6-yl)carbonohydrazonoyl dicyanide]", "values": [{"measurement": "Tau BiFC in cells Response (% @10 μM)", "setting": "[1]; 10 μM compound, Forskolin-only group = 100% tau protein-aggregated state", "result": "−41", "unit": "%"}, {"measurement": "IC50", "setting": "[1]; tau-BiFC cells", "result": 0.01, "unit": "µM"}, {"measurement": "Cell viability (% @10 μM)", "setting": "[2]", "result": 115, "unit": "%"}, {"measurement": "CYP2C19 coenzyme activity (%) with respect to control group not treated", "setting": "[3]", "result": 96.3, "unit": "%"}, {"measurement": "CYP3A4 coenzyme activity (%) with respect to control group not treated", "setting": "[4]", "result": 73.6, "unit": "%"}, {"measurement": "CYP2C9 coenzyme activity (%) with respect to control group not treated", "setting": "[5]", "result": 33.6, "unit": "%"}, {"measurement": "CYP1A2 coenzyme activity (%) with respect to control group not treated", "setting": "[6]", "result": 58.7, "unit": "%"}, {"measurement": "CYP2D6 coenzyme activity (%) with respect to control group not treated", "setting": "[7]", "result": 86.7, "unit": "%"}]}
